Reference: ChEMBL document CHEMBL1667728, “Stachylines A-D from the sponge-derived fungus Stachylidium sp” (J Nat Prod, 2011)
Activity calls are given as the source filed them. The rule behind the calls is not given here.

Tests used:
[1] = test system: Human immunodeficiency virus; assay: Antiviral activity against HIV; assay type: functional, organism-based
Influenza A virus = assay: Antiviral activity against Influenza virus; assay type: functional, organism-based

Compound | Activity [1] | Activity (Influenza A virus)
C=C(C)[C@H](O)COc1ccc(CC(=O)O)cc1 | inactive | inactive
C=C(C)[C@H](O)COc1ccc(CC=NO)cc1 (mixture of isomers) | inactive | inactive
C=C(C)[C@H](O)COc1ccc(CCO)cc1 | inactive | inactive
